# Measured values from US5380727A, “Synergistic combination for treating herpes infections” (Bio-Mega, Inc., priority 1990, dated 1995).
# Test system: HSV-2 (strain HG-52)
# Test: Inhibition of HSV-2 replication in BHK-21/C13 cell culture (viral titer by neutral red colorimetric assay)
# Format: cell-based
# Conditions: Human alphaherpesvirus 2, BHK21 (C13); agent alone; HSV-2 strain HG-52 in BHK-21/C13 cells, 29 h incubation; read-out: IC50 (concentration causing 50% inhibition of virus replication)
# Procedure: BHK-21/C13 cells (ATCC CCL 10) are incubated for two days in 150 cm^2 T-flasks (1.5×10^6 cells/flask) with alpha-MEM medium (Gibco Canada Inc., Burlington, Ontario, Canada) supplemented with 8% (v/v) fetal bovine serum (FBS, Gibco Canada Inc.). The cells are trypsinized and then transferred to fresh media in a 24 well plate to give 2.5×10^5 cells in 750 μL of media per well. The cells are incubated at 37° C. for a period of 6 hours to allow them to adhere to the plate. Thereafter, the cells are washed once with 500 μL of alpha-MEM supplemented with 0.5% (v/v) FBS and then incubated with 750 μL of the same media (low serum) for 3 days. After this period of serum starvation, the low serum medium is removed and the cells are incubated in 500 μL of BBMT for 2 to 3 hours. [BBMT medium is described by P. Brazeau et al., Proc. Natl. Acad. Sci. USA, 79, 7909 (1982).] Thereafter, the cells are infected with HSV-2 (multiplicity of infection=0.02 PFU/cell) in 100 μL of BBMT medium. […]
# On completion of the above 2 hour incubation of the BHK-21/C13 cells, the media is replaced with alpha-MEM medium supplemented with 3% (v/v) FBS. The cells are now ready to be infected with the various sample dilutions of virus. […]
compound,measurement,value
"Nc1nc2c(ncn2COCCO)c(=O)[nH]1 [acyclovir, 9-[(2-hydroxyethoxy)methyl]guanine]",IC50,4 µM
